Assay results published in PubChem BioAssay AID1745844 (Carcinogenic Potency Database (CPDB), 2022).
Activity calls are given as the source filed them. The rule behind the calls is not given here.

Test system: rodent lifetime carcinogenesis bioassay, tumor incidence TD50
Assay: carcinogenic potency in animals, long-term in vivo studies, CPDB compilation (AID 1745844)

SMILES: NN
- TD50 (hamster, strain Syrian Golden, males, inhaled, site: colon, lesion: adenocarcinoma, dosed 52 weeks, study length 104 weeks): 14 mg/kg/day
- TD50 (hamster, strain Syrian Golden, males, inhaled, site: colon, lesion: leiomyoma, dosed 52 weeks, study length 104 weeks): 70.5 mg/kg/day
- TD50 (hamster, strain Syrian Golden, males, inhaled, site: colon, lesion: papilloma, dosed 52 weeks, study length 104 weeks): 70.5 mg/kg/day
- TD50 (hamster, strain Syrian Golden, males, inhaled, site: nasal cavity, lesion: adenomatous polyp, dosed 52 weeks, study length 104 weeks): 4.16 mg/kg/day
- TD50 (hamster, strain Syrian Golden, males, inhaled, site: stomach, lesion: basal-cell carcinoma, dosed 52 weeks, study length 104 weeks): 37.6 mg/kg/day
- TD50 (hamster, strain Syrian Golden, males, inhaled, site: thyroid gland, lesion: parafollicular-cell adenoma, dosed 52 weeks, study length 104 weeks): 17.5 mg/kg/day
- TD50 (mouse, strain Bor:NMRI, SPF-bred NMRI, females, in drinking water, site: any site (literature study), lesion: benign tumor, dosed 104 weeks, study length 104 weeks): 58.5 mg/kg/day (inactive)
- carcinogen call (mouse, strain Bor:NMRI, SPF-bred NMRI, females, in drinking water, site: any site (literature study), lesion: malignant tumor, dosed 104 weeks, study length 104 weeks): negative (inactive)
- carcinogen call (mouse, strain Bor:NMRI, SPF-bred NMRI, males, in drinking water, site: any site (literature study), lesion: benign tumor, dosed 104 weeks, study length 104 weeks): negative (inactive)
- carcinogen call (mouse, strain Bor:NMRI, SPF-bred NMRI, males, in drinking water, site: any site (literature study), lesion: malignant tumor, dosed 104 weeks, study length 104 weeks): negative (inactive)
- TD50 (mouse, strain C57BL/6, females, inhaled, site: lung, lesion: adenoma, dosed 52 weeks, study length 117 weeks): 7.78 mg/kg/day
- TD50 (mouse, strain Swiss, females, by gavage, site: lung, lesion: one or several types, types not named, dosed 40 weeks, study length 55 weeks): 5.67 mg/kg/day
- TD50 (mouse, strain Swiss, females, in drinking water, site: lung, lesion: adenocarcinoma, dosed 113 weeks, study length 113 weeks): 9 mg/kg/day
- TD50 (mouse, strain Swiss, females, in drinking water, site: lung, lesion: adenoma, dosed 113 weeks, study length 113 weeks): 2.81 mg/kg/day
- TD50 (mouse, strain Swiss, females, in drinking water, site: lung, lesion: several types, types named in the paper, dosed 113 weeks, study length 113 weeks): 2.54 mg/kg/day
- TD50 (mouse, strain Swiss, males, in drinking water, site: all sites, lesion: malignant lymphoma, dosed 113 weeks, study length 113 weeks): 9.52 mg/kg/day
- TD50 (mouse, strain Swiss, males, in drinking water, site: liver, lesion: several types, types named in the paper, dosed 113 weeks, study length 113 weeks): 29.8 mg/kg/day
- TD50 (mouse, strain Swiss, males, in drinking water, site: lung, lesion: adenocarcinoma, dosed 113 weeks, study length 113 weeks): 6.19 mg/kg/day
- TD50 (mouse, strain Swiss, males, in drinking water, site: lung, lesion: adenoma, dosed 113 weeks, study length 113 weeks): 2.77 mg/kg/day
- TD50 (mouse, strain Swiss, males, in drinking water, site: lung, lesion: several types, types named in the paper, dosed 113 weeks, study length 113 weeks): 2.2 mg/kg/day
- TD50 (rat, strain Fischer 344, females, inhaled, site: lung, lesion: bronchiolar adenoma, dosed 52 weeks, study length 130 weeks): 26.4 mg/kg/day
- TD50 (rat, strain Fischer 344, females, inhaled, site: nasal cavity, lesion: adenocarcinoma, dosed 52 weeks, study length 130 weeks): 9.2 mg/kg/day
- TD50 (rat, strain Fischer 344, females, inhaled, site: nasal cavity, lesion: adenomatous polyp, dosed 52 weeks, study length 130 weeks): 0.758 mg/kg/day
- TD50 (rat, strain Fischer 344, females, inhaled, site: nasal cavity, lesion: squamous-cell carcinoma, dosed 52 weeks, study length 130 weeks): 13.1 mg/kg/day
- TD50 (rat, strain Fischer 344, females, inhaled, site: nasal cavity, lesion: squamous-cell papilloma, dosed 52 weeks, study length 130 weeks): 8.72 mg/kg/day
- TD50 (rat, strain Fischer 344, females, inhaled, site: nasal cavity, lesion: villous polyp, dosed 52 weeks, study length 130 weeks): 6.56 mg/kg/day
- TD50 (rat, strain Fischer 344, males, inhaled, site: lung, lesion: bronchiolar adenoma, dosed 52 weeks, study length 130 weeks): 6.1 mg/kg/day
- carcinogen call (rat, strain Fischer 344, males, inhaled, site: nasal cavity, lesion: adenocarcinoma, dosed 52 weeks, study length 130 weeks): positive
- TD50 (rat, strain Fischer 344, males, inhaled, site: nasal cavity, lesion: adenomatous polyp, dosed 52 weeks, study length 130 weeks): 0.194 mg/kg/day
- TD50 (rat, strain Fischer 344, males, inhaled, site: nasal cavity, lesion: squamous-cell carcinoma, dosed 52 weeks, study length 130 weeks): 6.12 mg/kg/day
- TD50 (rat, strain Fischer 344, males, inhaled, site: nasal cavity, lesion: squamous-cell papilloma, dosed 52 weeks, study length 130 weeks): 6.1 mg/kg/day
- TD50 (rat, strain Fischer 344, males, inhaled, site: nasal cavity, lesion: villous polyp, dosed 52 weeks, study length 130 weeks): 1.36 mg/kg/day
- TD50 (rat, strain Fischer 344, males, inhaled, site: thyroid gland, lesion: carcinoma, dosed 52 weeks, study length 130 weeks): 1.6 mg/kg/day
- TD50 (rat, strain Wistar, females, in drinking water, site: liver, lesion: hepatocellular carcinoma, dosed 157 weeks, study length 157 weeks): 129 mg/kg/day
- TD50 (rat, strain Wistar, females, in drinking water, site: liver, lesion: several types, types named in the paper, dosed 157 weeks, study length 157 weeks): 41.6 mg/kg/day
- TD50 (rat, strain Wistar, females, in drinking water, site: mammary gland, lesion: malignant tumor, dosed 157 weeks, study length 157 weeks): 1.13 mg/kg/day
- TD50 (rat, strain Wistar, males, in drinking water, site: any site (literature study), lesion: several types, types named in the paper, dosed 157 weeks, study length 157 weeks): 9.64 mg/kg/day
- TD50 (rat, strain Wistar, males, in drinking water, site: liver, lesion: several types, types named in the paper, dosed 157 weeks, study length 157 weeks): 43.7 mg/kg/day

SMILES: O=NN(CC(=O)O)CC(=O)O
- TD50 (rat, strain MRC, females, in drinking water, site: any site (literature study), lesion: several types, types named in the paper, dosed 72 weeks, study length 104 weeks): 63.9 mg/kg/day (inactive)
- TD50 (rat, strain MRC, males, in drinking water, site: any site (literature study), lesion: several types, types named in the paper, dosed 72 weeks, study length 104 weeks): 76 mg/kg/day (inactive)
- TD50 (rat, strain MRC, males, in drinking water, site: pituitary gland, lesion: one or several types, types not named, dosed 72 weeks, study length 104 weeks): 66.9 mg/kg/day (inactive)

SMILES: CC(=O)Nc1ccc(S(=O)(=O)O)c2cc(S(=O)(=O)O)c(N=Nc3ccc(N=Nc4ccc(S(=O)(=O)O)cc4)c4ccc(S(=O)(=O)O)cc34)c(O)c12
- carcinogen call (mouse, strain CFW, females, in feed, site: liver, lesion: one or several types, types not named, dosed 80 weeks, study length 80 weeks): negative (inactive)
- carcinogen call (mouse, strain CFW, females, in feed, site: lung, lesion: adenoma, dosed 80 weeks, study length 80 weeks): negative (inactive)
- carcinogen call (mouse, strain CFW, males, in feed, site: liver, lesion: one or several types, types not named, dosed 80 weeks, study length 80 weeks): negative (inactive)
- TD50 (mouse, strain CFW, males, in feed, site: lung, lesion: adenoma, dosed 80 weeks, study length 80 weeks): 3660 mg/kg/day (inactive)
- carcinogen call (rat, strain CFE, females, in feed, site: liver, lesion: one or several types, types not named, dosed 104 weeks, study length 104 weeks): negative (inactive)
- carcinogen call (rat, strain CFE, males, in feed, site: liver, lesion: one or several types, types not named, dosed 104 weeks, study length 104 weeks): negative (inactive)

SMILES: Cc1cc(C)nc(NS(=O)(=O)c2ccc(N)cc2)n1
- TD50 (mouse, strain B6C3F1, females, in feed, site: liver, lesion: hepatocellular adenoma, dosed 78 weeks, study length 78 weeks): 2820 mg/kg/day
- TD50 (mouse, strain B6C3F1, females, in feed, site: liver, lesion: hepatocellular adenoma, dosed 104 weeks, study length 104 weeks): 12300 mg/kg/day
- TD50 (mouse, strain B6C3F1, females, in feed, site: liver, lesion: hepatocellular carcinoma, dosed 104 weeks, study length 104 weeks): 16500 mg/kg/day
- TD50 (mouse, strain B6C3F1, females, in feed, site: liver, lesion: several types, types named in the paper, dosed 104 weeks, study length 104 weeks): 8740 mg/kg/day
- TD50 (mouse, strain B6C3F1, females, in feed, site: lung, lesion: alveolar/bronchiolar carcinoma, dosed 52 weeks, study length 52 weeks): 3100 mg/kg/day
- TD50 (mouse, strain B6C3F1, females, in feed, site: lung, lesion: alveolar/bronchiolar carcinoma, dosed 104 weeks, study length 104 weeks): 12700 mg/kg/day
- TD50 (mouse, strain B6C3F1, females, in feed, site: thyroid gland, lesion: follicular-cell adenoma, dosed 78 weeks, study length 78 weeks): 618 mg/kg/day
- TD50 (mouse, strain B6C3F1, females, in feed, site: thyroid gland, lesion: follicular-cell adenoma, dosed 104 weeks, study length 104 weeks): 2160 mg/kg/day
- TD50 (mouse, strain B6C3F1, females, in feed, site: thyroid gland, lesion: follicular-cell carcinoma, dosed 104 weeks, study length 104 weeks): 54800 mg/kg/day
- TD50 (mouse, strain B6C3F1, females, in feed, site: thyroid gland, lesion: several types, types named in the paper, dosed 104 weeks, study length 104 weeks): 2060 mg/kg/day
- TD50 (mouse, strain B6C3F1, males, in feed, site: liver, lesion: hepatocellular adenoma, dosed 104 weeks, study length 104 weeks): 14900 mg/kg/day
- TD50 (mouse, strain B6C3F1, males, in feed, site: liver, lesion: several types, types named in the paper, dosed 104 weeks, study length 104 weeks): 11700 mg/kg/day
- TD50 (mouse, strain B6C3F1, males, in feed, site: thyroid gland, lesion: follicular-cell adenoma, dosed 78 weeks, study length 78 weeks): 3370 mg/kg/day
- TD50 (mouse, strain B6C3F1, males, in feed, site: thyroid gland, lesion: follicular-cell adenoma, dosed 104 weeks, study length 104 weeks): 1220 mg/kg/day
- TD50 (mouse, strain B6C3F1, males, in feed, site: thyroid gland, lesion: follicular-cell carcinoma, dosed 104 weeks, study length 104 weeks): 72100 mg/kg/day
- TD50 (mouse, strain B6C3F1, males, in feed, site: thyroid gland, lesion: several types, types named in the paper, dosed 104 weeks, study length 104 weeks): 1190 mg/kg/day

SMILES: O=C1C(c2[nH]c3ccc(S(=O)(=O)O)cc3c2O)=Nc2ccc(S(=O)(=O)O)cc21
- carcinogen call (mouse, strain Charles River CD1, females, in feed, site: liver, lesion: nodular hyperplasia, dosed 84 weeks, study length 84 weeks): negative (inactive)
- carcinogen call (mouse, strain Charles River CD1, females, in feed, site: lung, lesion: adenoma, dosed 84 weeks, study length 84 weeks): negative (inactive)
- TD50 (mouse, strain Charles River CD1, males, in feed, site: liver, lesion: nodular hyperplasia, dosed 84 weeks, study length 84 weeks): 20200 mg/kg/day (inactive)
- carcinogen call (mouse, strain Charles River CD1, males, in feed, site: lung, lesion: adenoma, dosed 84 weeks, study length 84 weeks): negative (inactive)
- TD50 (mouse, strain Charles River CD (Sprague-Dawley), females, in feed, site: any site (literature study), lesion: malignant tumor, dosed 100 weeks, study length 100 weeks): 33900 mg/kg/day (inactive)
- carcinogen call (mouse, strain Charles River CD (Sprague-Dawley), females, in feed, site: any site (literature study), lesion: several types, types named in the paper, dosed 100 weeks, study length 100 weeks): negative (inactive)
- TD50 (mouse, strain Charles River CD (Sprague-Dawley), males, in feed, site: any site (literature study), lesion: malignant tumor, dosed 95 weeks, study length 95 weeks): 57100 mg/kg/day (inactive)
- TD50 (mouse, strain Charles River CD (Sprague-Dawley), males, in feed, site: any site (literature study), lesion: several types, types named in the paper, dosed 95 weeks, study length 95 weeks): 23400 mg/kg/day (inactive)
- TD50 (rat, strain Osborne-Mendel, both sexes, in feed, site: any site (literature study), lesion: several types, types named in the paper, dosed 104 weeks, study length 104 weeks): 5430 mg/kg/day (inactive)

SMILES: CC(C)CN(N=O)C(N)=O
- TD50 (rat, strain Donryu, females, in drinking water, site: any site (literature study), lesion: several types, types named in the paper, dosed 76 weeks, study length 76 weeks): 4.7 mg/kg/day
- TD50 (rat, strain Donryu, females, in drinking water, site: digestive tract, lesion: several types, types named in the paper, dosed 76 weeks, study length 76 weeks): 4.73 mg/kg/day
- TD50 (rat, strain Donryu, females, in drinking water, site: duodenum, lesion: several types, types named in the paper, dosed 76 weeks, study length 76 weeks): 7.22 mg/kg/day
- TD50 (rat, strain Donryu, females, in drinking water, site: liver, lesion: several types, types named in the paper, dosed 76 weeks, study length 76 weeks): 1220 mg/kg/day
- TD50 (rat, strain Donryu, females, in drinking water, site: stomach, glandular, lesion: several types, types named in the paper, dosed 76 weeks, study length 76 weeks): 23.1 mg/kg/day

SMILES: CCN(C)N=O
- TD50 (rat, strain Fischer 344, females, in drinking water, site: all sites, lesion: one or several types, types not named, dosed 30 weeks, study length 115 weeks): 0.0386 mg/kg/day
- TD50 (rat, strain Fischer 344, males, by gavage, site: liver, lesion: hemangiosarcoma, dosed 30 weeks, study length 55 weeks): 0.12 mg/kg/day
- TD50 (rat, strain Fischer 344, males, by gavage, site: liver, lesion: hepatocellular tumor, benign, dosed 30 weeks, study length 55 weeks): 0.0503 mg/kg/day
- TD50 (rat, strain Fischer 344, males, by gavage, site: liver, lesion: several types, types named in the paper, dosed 30 weeks, study length 55 weeks): 0.0503 mg/kg/day
- TD50 (rat, strain Fischer 344, males, by gavage, site: lung, lesion: alveolar/bronchiolar adenoma, dosed 30 weeks, study length 55 weeks): 0.242 mg/kg/day
- TD50 (rat, strain Fischer 344, males, by gavage, site: nasal mucosa, lesion: one or several types, types not named, dosed 30 weeks, study length 55 weeks): 0.201 mg/kg/day
